Reference: PMC5035034, “Carbohydrate-Binding Non-Peptidic Pradimicins for the Treatment of Acute Sleeping Sickness in Murine Models” (PLoS Pathogens, 2016)

Biological target: T1, VSG221 (variant surface glycoprotein 221, MITat 1.2) (Trypanosoma brucei, UniProt P26332)
T1 construct: soluble form VSG (sVSG) purified from parental bloodstream forms, N-glycosylated (Asn263, Asn428)
Experiment: SPR (Biacore T200) on immobilized VSG221, […]; supported by HHA-FITC and CV-N-FITC competition on live parasites
Type: binding

## CN[C@@H]1[C@H](O[C@@H]2O[C@H](CO)[C@@H](O)[C@H](OS(=O)(=O)O)[C@H]2O)[C@@H](O)[C@H](O[C@H]2c3cc(C)c(C(=O)N[C@H](C)C(=O)O)c(O)c3-c3c(cc4c(c3O)C(=O)c3cc(OC)cc(O)c3C4=O)[C@@H]2O)O[C@@H]1C [PRM-S, pradimicin S]
  SPR (Biacore T200) on immobilized VSG221, 1.56 to 50 uM; supported by HHA-FITC a: A significant concentration-dependent binding to the parental Tb BSF VSG221-bound sensorchip was observed
